From ChEMBL document CHEMBL1132542, “Vasorelaxation by new hybrid compounds containing dihydropyridine and pinacidil-like moieties” (J Med Chem, 1999)

Assays:
Rattus norvegicus [1] = species: Rattus norvegicus; experiment: Vasorelaxation activity in rat mesenteric arteries after contractile stimulus(K+ depolarization)
Rattus norvegicus [2] = species: Rattus norvegicus; experiment: Vasorelaxation activity in rat mesenteric arteries after contractile stimulus(K+ depolarization).
[3] = molecular target: T1, Voltage-dependent L-type calcium channel subunit alpha-1C (Homo sapiens, UniProt Q13936); experiment: Inhibition of VGCC alpha-1C-b expressed in CHO cells -80 mV holding potential, peak Ba2+ current, at 10e-6 M; assay type: functional, cell-based
T1 sequence (Q13936 whole entry): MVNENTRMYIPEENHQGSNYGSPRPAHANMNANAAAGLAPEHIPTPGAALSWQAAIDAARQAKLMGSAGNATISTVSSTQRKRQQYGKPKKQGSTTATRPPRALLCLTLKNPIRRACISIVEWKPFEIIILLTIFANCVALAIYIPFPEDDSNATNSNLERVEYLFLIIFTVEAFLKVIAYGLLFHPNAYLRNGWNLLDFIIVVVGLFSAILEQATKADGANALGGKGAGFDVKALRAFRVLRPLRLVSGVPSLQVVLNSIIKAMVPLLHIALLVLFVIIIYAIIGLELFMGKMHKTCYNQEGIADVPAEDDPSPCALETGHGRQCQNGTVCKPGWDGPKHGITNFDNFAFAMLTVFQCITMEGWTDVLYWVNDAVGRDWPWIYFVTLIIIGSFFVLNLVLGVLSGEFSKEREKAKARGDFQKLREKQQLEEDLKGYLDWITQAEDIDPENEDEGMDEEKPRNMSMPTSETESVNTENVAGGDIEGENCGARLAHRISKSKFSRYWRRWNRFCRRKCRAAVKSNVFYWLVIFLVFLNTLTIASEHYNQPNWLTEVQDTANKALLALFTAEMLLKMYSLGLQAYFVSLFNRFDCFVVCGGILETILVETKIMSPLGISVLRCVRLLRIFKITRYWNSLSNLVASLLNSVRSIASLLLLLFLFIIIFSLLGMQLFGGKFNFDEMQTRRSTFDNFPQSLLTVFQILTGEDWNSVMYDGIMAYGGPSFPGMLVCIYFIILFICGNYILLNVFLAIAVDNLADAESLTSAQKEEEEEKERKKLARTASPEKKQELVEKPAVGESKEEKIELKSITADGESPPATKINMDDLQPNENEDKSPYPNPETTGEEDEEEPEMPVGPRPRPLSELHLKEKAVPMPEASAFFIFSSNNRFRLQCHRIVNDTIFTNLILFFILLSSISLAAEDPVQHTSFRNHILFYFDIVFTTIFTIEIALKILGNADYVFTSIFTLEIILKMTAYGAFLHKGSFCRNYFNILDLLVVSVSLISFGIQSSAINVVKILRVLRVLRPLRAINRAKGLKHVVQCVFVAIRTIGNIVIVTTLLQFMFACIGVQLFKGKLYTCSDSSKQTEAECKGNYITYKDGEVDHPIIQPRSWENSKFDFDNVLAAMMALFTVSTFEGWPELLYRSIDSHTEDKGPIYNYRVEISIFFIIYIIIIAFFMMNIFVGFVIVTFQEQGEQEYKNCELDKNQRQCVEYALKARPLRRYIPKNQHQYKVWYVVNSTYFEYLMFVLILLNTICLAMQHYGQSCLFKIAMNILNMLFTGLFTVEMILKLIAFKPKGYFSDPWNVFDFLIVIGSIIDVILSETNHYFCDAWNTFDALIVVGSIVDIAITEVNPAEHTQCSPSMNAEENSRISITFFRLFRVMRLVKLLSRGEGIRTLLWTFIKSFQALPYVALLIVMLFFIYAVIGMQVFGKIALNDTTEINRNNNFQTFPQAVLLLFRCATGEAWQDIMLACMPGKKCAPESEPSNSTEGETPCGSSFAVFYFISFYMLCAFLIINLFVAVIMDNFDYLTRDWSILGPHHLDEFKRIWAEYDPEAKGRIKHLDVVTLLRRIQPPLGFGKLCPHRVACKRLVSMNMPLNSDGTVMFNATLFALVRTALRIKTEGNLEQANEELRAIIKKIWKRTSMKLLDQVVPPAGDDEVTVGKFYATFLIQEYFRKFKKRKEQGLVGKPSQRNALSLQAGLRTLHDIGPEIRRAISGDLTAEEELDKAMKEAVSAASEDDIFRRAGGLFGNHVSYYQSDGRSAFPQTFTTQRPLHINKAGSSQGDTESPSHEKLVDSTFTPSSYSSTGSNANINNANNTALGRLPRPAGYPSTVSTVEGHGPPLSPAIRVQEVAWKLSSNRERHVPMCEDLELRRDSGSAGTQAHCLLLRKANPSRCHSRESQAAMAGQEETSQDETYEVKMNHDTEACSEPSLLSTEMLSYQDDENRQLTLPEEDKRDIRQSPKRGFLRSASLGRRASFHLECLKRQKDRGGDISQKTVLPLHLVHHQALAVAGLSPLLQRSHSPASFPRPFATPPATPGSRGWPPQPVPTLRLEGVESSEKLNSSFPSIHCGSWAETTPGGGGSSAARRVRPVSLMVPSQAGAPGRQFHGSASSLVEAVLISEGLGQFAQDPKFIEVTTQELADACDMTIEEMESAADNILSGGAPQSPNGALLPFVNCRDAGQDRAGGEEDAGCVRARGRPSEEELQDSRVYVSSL

[4] = Vasorelaxation in rat mesenteric arteries after contractile stimulus (norepinephrine+glibenclamide); assay type: functional
[5] = molecular target: T1, Voltage-dependent L-type calcium channel subunit alpha-1C; experiment: Inhibition of VGCC alpha-1C-b expressed in CHO cells -80 mV holding potential, peak Ba2+ current, at 10e-5 M; assay type: functional, cell-based; details: hamster
[6] = Inhibition of [3H]P1075 binding to ATP-sensitive potassium channels of rat cardiac membranes; assay type: cell membranes, Membrane
[7] = molecular target: T1, Voltage-dependent L-type calcium channel subunit alpha-1C; experiment: Inhibition of VGCC alpha-1C-b expressed in CHO cells -30 mV holding potential, peak Ba2+ current, at 10e-6 M; assay type: functional, cell-based
[8] = molecular target: T1, Voltage-dependent L-type calcium channel subunit alpha-1C; experiment: Inhibition of VGCC alpha-1C-b expressed in CHO cells -30 mV holding potential, peak Ba2+ current, at 10e-5 M; assay type: functional, cell-based
Rattus norvegicus [9] = species: Rattus norvegicus; experiment: Vasorelaxation activity in rat mesenteric arteries after contractile stimulus (norepinephrine)
[10] = molecular target: T1, Voltage-dependent L-type calcium channel subunit alpha-1C; experiment: Inhibition of VGCC alpha-1C-b expressed in CHO cells -80 mV holding potential, peak Ba2+ current, at 10e-4 M; assay type: functional, cell-based
[11] = molecular target: T1, Voltage-dependent L-type calcium channel subunit alpha-1C; experiment: Inhibition of VGCC alpha-1C-b expressed in CHO cells -30 mV holding potential, peak Ba2+ current, at 10e-4 M; assay type: functional, cell-based

| EC50 (Rattus norvegicus [1]) [nM] | EC50 (Rattus norvegicus [2]) [nM] | Peak current [3] [%] | Log EC50 [4] | Peak current [5] [%] | pIC50 [6] | Peak current [7] [%] | Peak current [8] [%] | EC50 (Rattus norvegicus [9]) [nM] | Peak current [10] [%] | Peak current [11] [%] | SMILES |
| --- | --- | --- | --- | --- | --- | --- | --- | --- | --- | --- | --- |
| 955 |  |  |  |  |  |  |  |  |  |  | CCOC(=O)C1=C(C)N=C(C)/C(=C(/O)OCC)C1c1cc(N/C(=N/C(C)C(C)(C)C)NC#N)ccc1OC(F)F (stereo not drawn) |
|  | 2340 |  |  |  |  |  |  |  |  |  | CO/C(O)=C1\C(C)=NC(C)=C(C#N)C1c1cc(N/C(=N/C(C)C(C)(C)C)NC#N)ccc1OC(F)F (stereo not drawn) |
| 372 |  | 60.4 | -6.2 | 38.2 | 6.2 | 9.2 | 2.5 | 200 |  |  | COC(=O)C1=C(C)N=C(C)/C(=C(/O)OC)C1c1cc(N/C(=N/C(C)C(C)(C)C)NC#N)ccc1OC(F)F (stereo not drawn) |
| 7410 |  |  | -6.12 | 58.2 | 8.7 |  | 10.8 | 288 | 26.7 | 2.4 | CC(/N=C(\NC#N)Nc1ccc(OC(F)F)cc1)C(C)(C)C (stereo not drawn) |
